Patent publication US6426355B1, “Heterocyclic carboxamide-containing thiourea inhibitors of herpes viruses containing phenylenediamine group” (American Home Products, priority 1998, dated 2002)
Values after ≈ are worked out from the molar mass of the structure shown.

Tests used:
VZV strain Ellen = experiment: VZV Antiviral (ELISA) assay; format: cell-based; details: for IC50 (ug/ml) VZV: VZV strain Ellen in HFF cells; for inhibition at 10 µg/mL: Human alphaherpesvirus 3, read-out: % inhibition 10 ug/ml VZV, at 10 ug/ml, VZV strain Ellen in HFF cells
Method: For the generation of stock VZV to be used in the assay, VZV strain Ellen (ATCC #VR-1367) is used to infect human foreskin fibroblast (HFF) cells at low multiplicity (less than 0.1) and incubated overnight at 37° C. in 5% CO2. After the overnight incubation, the mixture of uninfected and VZV-infected HFF infected cells are then harvested and added to each well of 96-well plates (3.5×10^4 cells in 100 μl DMEM supplemented with 2% FBS) which contain test compound or the reference standard drug control (in 100 μl DMEM supplemented with 2% FBS per well). These cells are incubated for three days at 37° C. in 5% CO2, then fixed for ELISA assay. The primary antibody is murine anti-VZV glycoprotein II monoclonal antibody (Applied Biosystems, Inc. #13-145-100) and the secondary antibody is goat anti-mouse IgG linked to β-galactosidase. Thus the extent of viral replication is determined by assessing β-galactosidase activity by quantifying the generation of the 4-methyl umbelliferone fluorescent cleavage product after addition of the methyl umbelliferyl-β-D-galactoside (Sigma #M1633) substrate on a microfluorimeter (365 nm for excitation and 450 nm for emission). Antiviral activity (IC50) of the test compound is determined by comparing the flourescence obtained in absence of compound to that obtained in the presence of compound.

[1] = system: HCMV recombinant mutant virus (RV145); experiment: HCMV microtiter plate assay (beta-glucuronidase reporter); format: cell-based, Human Cytomegalovirus; details: for IC50 (ug/ml) HCMV: HCMV in human foreskin fibroblasts; for IC50: Human betaherpesvirus 5, Fibroblast, read-out: IC50 (ug/ml) HCMV
Excerpt: Ninety-six well plate cultures of human foreskin fibroblasts are infected in the presence of inhibitor compound with a HCMV recombinant mutant virus whose genome contains the prokaryotic beta-glucuronidase gene (Jefferson, R. A., S. M. Burgess, and D. Hirsh. 1986. Beta-glucuronidase from Escherichia coli as a gene fusion marker. Proc. Natl. Acad. Sci. USA 83:8447-8451) whose expression is controlled by a viral promoter. An example of such a virus is RV145 (Jones, T. R., V. P. Muzithras, and Y. Gluzman. 1991. Replacement mutagenesis of the human cytomegalovirus genome: US10 and US11 gene products are nonessential. J. Virol. 65:5860-5872). Since it is under the control of a viral promoter, beta-glucuronidase expression is an indirect indicator of growth and replication of HCMV in this assay. At 96 hours post-infection, the infected cell lysates are prepared (using 50 mM sodium phosphate [pH7.0] containing 0.1% Triton X-100 and 0.1% sarkosyl) and assayed for beta-glucuronidase activity using a substrate for the enzyme which when cleaved yields either a product which can be measured colorimetrically in a spectrophotometer or fluorescently in a microfluorimeter. Examples of such substrates are p-nitrophenyl-beta-D-glucuronide and methylumbelliferylglucuronide, respectively. The presence of an antiviral compound is indicated by the reduced expression of the HCMV genome resident beta-glucuronidase gene, compared to the absence of inhibitor. […] Data from this assay generated using varying amounts of inhibitor compound is also used to estimate the IC50 of an inhibitor compound.

Compound	IC50 (ug/ml) VZV (VZV strain Ellen) [µg/mL]	IC50 (ug/ml) HCMV [1] [µg/mL]	inhibition at 10 µg/mL (VZV strain Ellen) [%]	IC50 [1] [µg/mL]
O=C(Nc1ccc(NC(=S)NCCc2ccccc2)cc1)c1ccco1 [Example 574]	>10	0.089 (≈ 244 nM)		
O=C(Nc1ccc(NC(=S)NCc2cccc(F)c2)cc1)c1csnn1 [Example 732]		0.022 (≈ 56.8 nM)		
CC(NC(=S)Nc1ccc(NC(=O)c2cscn2)cc1)c1ccc(F)cc1Cl (stereo not shown) [Example 839]	>7.5	0.004 (≈ 9.2 nM)		
CC(=O)Nc1ccc(NC(=S)Nc2cc(Cl)cc(Cl)c2)cc1 [Example 983, N-{4-[3-(3,5-Dichloro-phenyl)-thioureido]-phenyl}-acetamide]			52	0.12 (≈ 339 nM)
CC(NC(=S)Nc1ccc(NC(=O)c2cscn2)cc1)c1ccc(F)cc1F (stereo not shown) [Example 846]	1.04 (≈ 2490 nM)	0.0130 (≈ 31.1 nM)		
CC(NC(=S)Nc1ccc(NC(=O)c2cscn2)cc1)c1ccc(F)c(C(F)(F)F)c1 (stereo not shown) [Example 838]	>7.5	0.0007 (≈ 1.49 nM)		
CC(NC(=S)Nc1ccc(NC(=O)c2cscn2)cc1)c1ccc(F)cc1Br (stereo not shown) [Example 854]		0.02 (≈ 41.7 nM)		
C[C@@H](NC(=S)Nc1ccc(NC(=O)c2cscn2)cc1)c1cc(C(F)(F)F)cc(C(F)(F)F)c1 [Example 847]	>7.5	0.0008 (≈ 1.54 nM)		
CC(NC(=S)Nc1ccc(NC(=O)c2cscn2)cc1)c1ccccc1Br (stereo not shown) [Example 843]	>7.5	0.0031 (≈ 6.72 nM)		
CC(NC(=S)Nc1ccc(NC(=O)c2cscn2)cc1)c1ccc(C(F)(F)F)c(F)c1 (stereo not shown) [Example 849]	1.82 (≈ 3880 nM)	0.002 (≈ 4.27 nM)		
O=C(Nc1ccc(NC(=S)NCCOc2ccccc2Cl)cc1)c1csnn1 [Example 733]		0.018 (≈ 41.5 nM)		
CC(NC(=S)Nc1ccc(NC(=O)c2cscn2)cc1)c1ccc(Br)cc1 (stereo not shown) [Example 824]	0.17 (≈ 368 nM)	0.014 (≈ 30.3 nM)		
O=C(Nc1ccc(NC(=S)NCCOc2cccc(F)c2)cc1)c1csnn1 [Example 736]		0.012 (≈ 28.7 nM)		
O=C(Nc1ccc(NC(=S)NCc2cc(F)cc(F)c2)cc1)c1ccco1 [Example 579]	6 (≈ 15500 nM)	0.05 (≈ 129 nM)		
C[C@H](NC(=S)Nc1ccc(NC(=O)c2csnn2)cc1)c1cc(C(F)(F)F)cc(C(F)(F)F)c1 [Example 825]	>7.5	0.0013 (≈ 2.5 nM)		
O=C(Nc1ccc(NC(=S)NCc2cc(F)cc(C(F)(F)F)c2)cc1)c1ccco1 [Example 585]	>10	0.015 (≈ 34.3 nM)		
CC(=O)Nc1ccc(NC(=S)Nc2ccc(C(C)O)c(Cl)c2)cc1 (stereo not shown) [Example 913, N-(4-{3-[3-Chloro-4-(1-hydroxy-ethyl)-phenyl]-thioureido}-phenyl)-acetamide]			15	0.056 (≈ 154 nM)
O=C(Nc1ccc(NC(=S)NCc2ccc(F)c(C(F)(F)F)c2)cc1)c1csnn1 [Example 624]	>10	0.002 (≈ 4.39 nM)		
C[C@@H](NC(=S)Nc1ccc(NC(=O)c2csnn2)cc1)c1ccc(Br)cc1 [Example 816]	>7.5	0.0053 (≈ 11.5 nM)		
CC(NC(=S)Nc1ccc(NC(=O)c2cscn2)cc1)c1cccc(Br)c1 (stereo not shown) [Example 844]	1.03 (≈ 2230 nM)	0.0008 (≈ 1.73 nM)		
CC(NC(=S)Nc1ccc(NC(=O)c2cscn2)cc1)c1ccc(F)cc1C(F)(F)F (stereo not shown) [Example 852]	>7.5	0.005 (≈ 10.7 nM)		
CN1CCN(c2ccc(CNC(=S)Nc3ccc(NC(=O)c4csnn4)cc3)cc2C(F)(F)F)CC1 [Example 617]	>10	0.013 (≈ 24.3 nM)		

Compound	IC50 (ug/ml) VZV (VZV strain Ellen) [µg/mL]	IC50 (ug/ml) HCMV [1] [µg/mL]	inhibition at 10 µg/mL (VZV strain Ellen) [%]	IC50 [1] [µg/mL]
CC(NC(=S)Nc1ccc(NC(=O)c2cscn2)cc1)c1ccc(Cl)c(F)c1 (stereo not shown) [Example 853]	0.62 (≈ 1430 nM)	0.004 (≈ 9.2 nM)		
CC(=O)Nc1ccc(NC(=S)Nc2ccc(-c3ccno3)c(Cl)c2)cc1 [Example 974, N-{4-[3-(3-Chloro-4-isoxazol-5-yl-phenyl)-thioureido]-phenyl} -acetamide]			14	0.011 (≈ 28.4 nM)
O=C(Nc1ccc(NC(=S)NC(c2ccccc2)c2cc(C(F)(F)F)cc(C(F)(F)F)c2)cc1)c1csnn1 (stereo not shown) [Example 860]	>7.5	0.001 (≈ 1.72 nM)		
C[C@H](NC(=S)Nc1ccc(NC(=O)c2csnn2)cc1)c1ccc(Cl)cc1 [Example 820]	>7.5	0.006 (≈ 14.4 nM)		
CCCCC(NC(=S)Nc1ccc(NC(=O)c2csnn2)cc1)c1cc(C(F)(F)F)cc(C(F)(F)F)c1 (stereo not shown) [Example 859]	0.5 (≈ 890 nM)	0.00001 (≈ 0.0178 nM)		
CC(NC(=S)Nc1ccc(NC(=O)c2cscn2)cc1)c1ccccc1C(F)(F)F (stereo not shown) [Example 845]	>7.5	0.0060 (≈ 13.3 nM)		
Cn1cnc(C(=O)Nc2ccc(NC(=S)NCc3cc(C(F)(F)F)cc(C(F)(F)F)c3)cc2)c1 [Example 864]	>7.5	0.5 (≈ 997 nM)		
CC(NC(=S)Nc1ccc(NC(=O)c2cscn2)cc1)c1ccc(Cl)cc1Cl (stereo not shown) [Example 836]	>7.5	0.004 (≈ 8.86 nM)		
O=C(Nc1ccc(NC(=S)NCCOc2ccccc2F)cc1)c1csnn1 [Example 735]		0.022 (≈ 52.7 nM)		
CC(NC(=S)Nc1ccc(NC(=O)c2cscn2)cc1)c1ccc(Cl)c(C(F)(F)F)c1 (stereo not shown) [Example 850]	2.33 (≈ 4800 nM)	0.0008 (≈ 1.65 nM)		
O=C(Nc1ccc(NC(=S)NCc2cccc(Cl)c2)cc1)c1csnn1 [Example 572]	>10	0.0078 (≈ 19.3 nM)		
CC(NC(=S)Nc1ccc(NC(=O)c2cscn2)cc1)c1ccc(Cl)c(Cl)c1 (stereo not shown) [Example 848]	0.19 (≈ 421 nM)	0.002 (≈ 4.43 nM)		
Cc1ccc(C(C)NC(=S)Nc2ccc(NC(=O)c3cscn3)cc2)c(C)c1 (stereo not shown) [Example 834]	>7.5	0.002 (≈ 4.87 nM)		
C[C@H](NC(=S)Nc1ccc(NC(=O)c2csnn2)cc1)c1ccc(Br)cc1 [Example 815]	0.27 (≈ 584 nM)	0.0095 (≈ 20.5 nM)		
CC(NC(=S)Nc1ccc(NC(=O)c2c[nH]cn2)cc1)c1ccc(F)cc1 (stereo not shown) [Example 863]	>7.5	2.0 (≈ 5220 nM)		
CC(NC(=S)Nc1ccc(NC(=O)c2csnn2)cc1)c1ccc(F)c(C(F)(F)F)c1 (stereo not shown) [Example 828]	>7.5	0.002 (≈ 4.26 nM)		
CC(NC(=S)Nc1ccc(NC(=O)c2cscn2)cc1)c1ccc(Br)c(Br)c1 (stereo not shown) [Example 855]		0.02 (≈ 37 nM)		
O=C(Nc1ccc(NC(=S)Nc2ccc(F)cc2)cc1)c1csnn1 [Example 740]		0.1 (≈ 268 nM)		
CC(NC(=S)Nc1ccc(NC(=O)c2cscn2)cc1)c1ccc(F)c(Cl)c1 (stereo not shown) [Example 856]		0.02 (≈ 46 nM)		
O=C(Nc1ccc(NC(=S)NCc2ccccc2F)cc1)c1csnn1 [Example 730]		0.033 (≈ 85.2 nM)		
O=C(Nc1ccc(NC(=S)NCc2ccccc2Cl)cc1)c1csnn1 [Example 729]		0.02 (≈ 49.5 nM)		
